The source of these data is patent publication US11866414B2, “Substituted heterocyclic compounds” (BRISTOL-MYERS SQUIBB COMPANY, priority 2021, dated 2024).

Series [1] has as its system Caco-2 cells. In words: Bidirectional permeability assay in Caco-2 cells. The following applies: for Efflux Ratio: Caco-2, 3 μM, pH 7.4, 2 hours; for CACO2 (A-B): permeability coefficient apical-to-basolateral, 3 μM, pH 7.4, 0.5% BSA, 2 hours, 37° C.
Series [2] in a line: Brain penetration in vivo assay (brain and plasma exposure). To be noted: for Kp at 1 h: C57BL6, brain / plasma, 10 mg/kg, mouse, 10 mpk, po, read-out: Ratio of exposure in brain to plasma (mouse) (1 h, 10 mpk, po). As to the method:
Brain Penetration In Vivo Assay
A pharmacokinetic study was performed using C57BL6 wild-type mice (n=3 per experiment) to determine brain and plasma exposure of compounds of the invention. The compound was administered orally in a solution of 5% ETHANOL: 90% PEG 300; 5% TPGS at 5 mL/kg for a final concentration of 10 mg/kg. Nice were euthanized 1 hour post-dose and plasma and brain were collected and frozen for analysis. Brain tissues were homogenized in a 1:1 volume of blank C57BL6 mouse plasma. Concentrations of the compound in plasma and brain homogenate were determined by LC-MS analysis.

Series [3] deals with Caco-2 cells. The following applies: human, Caco-2, 2 h, 3 μM, pH 7.4.
A short description of the next series: in vitro. To be noted: human, Caco-2, pH 7.4.
In series [4] the test system is IFNα-induced STAT phosphorylation (pSTAT5). In words: IFNα-induced STAT phosphorylation in human whole blood. The following applies: 1 h compound, 1000 U/mL IFNα A/D 15 min, CD3 positive population, read-out: Human Whole blood IFNa pSTAT5 IC50. Type of series: cell-based.

Read-outs that look alike come from different tables or passages of the source.

As a reminder, the Papp A→B is how fast a substance crosses the layer from the apical side. Low values mean poor permeation, high ones ready permeation. The efflux ratio is the permeability from basolateral to apical divided by that in the opposite direction, in the common usage. The term IC50 denotes the concentration that gives 50% inhibition.

Regarding `[2H]C([2H])([2H])NC(=O)c1nnc(NC(=O)C2CC2)cc1Nc1cccc(-c2cnn(C3COC3)n2)c1OC` [Example 53, 6-cyclopropaneamido-4-({2-methoxy-3-[2-(oxetan-3-yl)-2H-1,2,3-triazol-4-yl]phenyl}amino)-N—(^2H3)methylpyridazine-3-carboxamide], in the series on Caco-2 cells [1], the “Efflux Ratio” value worked out at 0.7 and the “CACO2 (A-B)” value is given as 425 nm/s.

`[2H]C([2H])([2H])NC(=O)c1nnc(NC(=O)C2CC2)cc1Nc1nccc(-c2cnn(C3CC3)n2)c1OC` [Example 14, 6-cyclopropaneamido-4-{[4-(2-cyclopropyl-2H-1,2,3-triazol-4-yl)-3-methoxypyridin-2-yl]amino}-N—(^2H3)methylpyridazine-3-carboxamide]: the “Ratio of exposure in brain to plasma (mouse) (1 h, 10 mpk, po)” value (shortened to “Ratio of exposure in brain to plasma”) in series [2] was determined as 0.8. In addition, the “CACO2 (A-B)” value with Caco-2 cells [3] was found to be 446 nm/s.

Turning to `[2H]C([2H])([2H])NC(=O)c1nnc(NC(=O)C2CC2)cc1Nc1ccc(F)c(-c2cnn(C)n2)c1OC` [Example 18, 6-cyclopropaneamido-4-{[4-fluoro-2-methoxy-3-(2-methyl-2H-1,2,3-triazol-4-yl)phenyl]amino}-N—(^2H3)methylpyridazine-3-carboxamide], in the series on Caco-2 cells [3], the “CACO2 (A-B)” value turned out to be 654 nm/s.

For the compound `[2H]C([2H])([2H])NC(=O)c1nnc(NC(=O)C2CC2)cc1Nc1ccc(C2CC2)c(-c2cnn(C)n2)c1OC` [Example 55, 6-cyclopropaneamido-4-{[4-cyclopropyl-2-methoxy-3-(2-methyl-2H-1,2,3-triazol-4-yl)phenyl]amino}-N—(^2H3)methylpyridazine-3-carboxamide], the “CACO2 (A-B)” value with Caco-2 cells [3] was found to be 507 nm/s.

On to `[2H]C([2H])([2H])NC(=O)c1nnc(NC(=O)C2CC2)cc1Nc1cccc(-c2cnn(CC(F)F)n2)c1OC` [Example 3, 6-cyclopropaneamido-4-({3-[2-(2,2-difluoroethyl)-2H-1,2,3-triazol-4-yl]-2-methoxyphenyl}amino)-N—(^2H3)methylpyridazine-3-carboxamide], for which the “Ratio of exposure in brain to plasma” value in series [2] came to 0.3. In the series on Caco-2 cells [3], the “CACO2 (A-B)” value was determined as 368 nm/s.

In the case of `[2H]C([2H])([2H])NC(=O)c1nnc(NC(=O)C2CC2)cc1Nc1cccc(-c2cnn(C3CCC3)n2)c1OC` [Example 54, 4-{[3-(2-cyclobutyl-2H-1,2,3-triazol-4-yl)-2-methoxyphenyl]amino}-6-cyclopropaneamido-N—(^2H3)methylpyridazine-3-carboxamide], the “CACO2 (A-B)” value in the series on Caco-2 cells [3] worked out at 180 nm/s.

`[2H]C([2H])([2H])NC(=O)c1nnc(NC(=O)N2CCC2)cc1Nc1cccc(-c2cnn(C)n2)c1OC` [Example 51, 6-[(azetidine-1-carbonyl)amino]-4-{[2-methoxy-3-(2-methyl-2H-1,2,3-triazol-4-yl)phenyl]amino}-N—(^2H3)methylpyridazine-3-carboxamide]: in the series on Caco-2 cells [1], the “Efflux Ratio” value is 0.9 and the “CACO2 (A-B)” value is 429 nm/s.

Regarding `[2H]C([2H])([2H])NC(=O)c1nnc(NC(=O)C2CC2)cc1Nc1nccc(-c2cnn(C)n2)c1OC(F)F` [Example 60, 6-cyclopropaneamido-4-{[3-(difluoromethoxy)-4-(2-methyl-2H-1,2,3-triazol-4-yl)pyridin-2-yl]amino}-N—(^2H3)methylpyridazine-3-carboxamide], the “CACO2 (A-B)” value in the series on Caco-2 cells [3] was 340 nm/s.

For the compound `[2H]C([2H])([2H])NC(=O)c1nnc(NC(=O)C2CC2)cc1Nc1ccc(F)c(-c2cnn(CC)n2)c1OC` [Example 10, 6-cyclopropaneamido-4-{[3-(2-ethyl-2H-1,2,3-triazol-4-yl)-4-fluoro-2-methoxyphenyl]amino}-N—(^2H3)methylpyridazine-3-carboxamide], the “Ratio of exposure in brain to plasma” value in series [2] was determined as 0.1. For the same compound, in the series with Caco-2 cells [3], the “CACO2 (A-B)” value is 340 nm/s.

Regarding `[2H]C([2H])([2H])NC(=O)c1nnc(NC(=O)[C@@H]2CC23CC3)cc1Nc1cccc(-c2cnn(C)n2)c1OC` [Example 13, 4-{[2-methoxy-3-(2-methyl-2H-1,2,3-triazol-4-yl)phenyl]amino}-N—(^2H3)methyl-6-[(1R)-spiro[2.2]pentane-1-amido]pyridazine-3-carboxamide], in the series with Caco-2 cells [1], the “Efflux Ratio” value was found to be 0.7 and the “CACO2 (A-B)” value is given as 251 nm/s. Moreover, the “Ratio of exposure in brain to plasma” value in series [2] is reported as 0.4.

For the compound `[2H]C([2H])([2H])NC(=O)c1nnc(NC(=O)C2CC2)cc1Nc1cc(Cl)cc(-c2cnn(CC)n2)c1OC` [Example 15, 4-{[5-chloro-3-(2-ethyl-2H-1,2,3-triazol-4-yl)-2-methoxyphenyl]amino}-6-cyclopropaneamido-N—(^2H3)methylpyridazine-3-carboxamide], the “CACO2 (A-B)” value in the series on Caco-2 cells [3] was 63 nm/s.

Take `[2H]C([2H])([2H])NC(=O)c1nnc(NC(=O)C2CC2)cc1Nc1ccc(F)c(-c2cnn(C3CC3)n2)c1OC` [Example 16, 6-cyclopropaneamido-4-{[3-(2-cyclopropyl-2H-1,2,3-triazol-4-yl)-4-fluoro-2-methoxyphenyl]amino}-N—(^2H3)methylpyridazine-3-carboxamide]: the “CACO2 (A-B)” value with Caco-2 cells [3] is listed as 392 nm/s.

Consider `[2H]C([2H])([2H])NC(=O)c1nnc(NC(=O)N(C)CC)cc1Nc1nccc(-c2cnn(C)n2)c1OC` [Example 58, 6-{[ethyl(methyl)carbamoyl]amino}-4-{[3-methoxy-4-(2-methyl-2H-1,2,3-triazol-4-yl)pyridin-2-yl]amino}-N—(^2H3)methylpyridazine-3-carboxamide], for which, in the series with Caco-2 cells [1], the “Efflux Ratio” value was found to be 0.6 and the “CACO2 (A-B)” value is 314 nm/s.

As for `[2H]C([2H])([2H])NC(=O)c1nnc(NC(=O)[C@@H]2C[C@@H]2F)cc1Nc1nccc(-c2cnn(C)n2)c1OC` [Example 37, 6-((1S,2S)-2-fluorocyclopropane-1-carboxamido)-4-((3-methoxy-4-(2-methyl-2H-1,2,3-triazol-4-yl)pyridin-2-yl)amino)-N-(methyl-d3)pyridazine-3-carboxamide], in “in vitro”, the Papp A→B at 2 h, 3 μM came out at 494 nm/s and the efflux ratio at 2 h, 3 μM turned out to be 0.9. Besides, in series [2], the Kp at 1 h worked out at 0.1. The IC50 in series [4] turned out to be 0.02 µM.

On to `[2H]C([2H])([2H])NC(=O)c1nnc(NC(=O)C2CC2)cc1Nc1cc(F)cc(-c2cnn(C3CC3)n2)c1OC` [Example 12, 6-cyclopropaneamido-4-{[3-(2-cyclopropyl-2H-1,2,3-triazol-4-yl)-5-fluoro-2-methoxyphenyl]amino}-N—(^2H3)methylpyridazine-3-carboxamide], for which, in series [2], the “Ratio of exposure in brain to plasma” value was 0.7. For the same compound, the “CACO2 (A-B)” value in the series with Caco-2 cells [3] is reported as 173 nm/s.

`[2H]C([2H])([2H])NC(=O)c1nnc(NC(=O)C2CC2)cc1Nc1cc(OC)cc(-c2cnn(C)n2)c1OC` [Example 24, 6-(cyclopropane-carboxamido)-4-((2,5-dimethoxy-3-(2-methyl-2H-1,2,3-triazol-4-yl)phenyl)amino)-N-(methyl-d3)pyridazine-3-carboxamide]: in “in vitro”, the Papp A→B at 2 h, 3 μM is 330 nm/s and the efflux ratio at 2 h, 3 μM was determined as 0.5. The Kp at 1 h in series [2] stood at 0.2. Also, in series [4], the IC50 was found to be 0.12 µM.

In the case of `[2H]C([2H])([2H])NC(=O)c1nnc(NC(=O)N(C)C(C)C)cc1Nc1nccc(-c2cnn(C)n2)c1OC` [Example 59, 4-{[3-methoxy-4-(2-methyl-2H-1,2,3-triazol-4-yl)pyridin-2-yl]amino}-N—(^2H3)methyl-6-{[methyl(propan-2-yl)carbamoyl]amino}pyridazine-3-carboxamide], in the series on Caco-2 cells [1], the “Efflux Ratio” value was determined as 0.8 and the “CACO2 (A-B)” value was determined as 351 nm/s.

Consider `[2H]C([2H])([2H])NC(=O)c1nnc(NC(=O)C2CC2)cc1Nc1cccc(-c2cnn(C)n2)c1OC(F)F` [Example 56, 6-cyclopropaneamido-4-{[2-(difluoromethoxy)-3-(2-methyl-2H-1,2,3-triazol-4-yl)phenyl]amino}-N—(^2H3)methylpyridazine-3-carboxamide], for which the “CACO2 (A-B)” value with Caco-2 cells [3] amounted to 432 nm/s.

As to `[2H]C([2H])([2H])NC(=O)c1nnc(NC(=O)C2CC2)cc1Nc1cc(C)cc(-c2cnn(C3CC3)n2)c1OC` [Example 9, 6-cyclopropaneamido-4-{[3-(2-cyclopropyl-2H-1,2,3-triazol-4-yl)-2-methoxy-5-methylphenyl]amino}-N—(^2H3)methylpyridazine-3-carboxamide], in “in vitro”, the Papp A→B at 2 h, 3 μM worked out at 140 nm/s and the efflux ratio at 2 h, 3 μM stood at 0.3. In addition, in series [2], the Kp at 1 h turned out to be 0.2. Further, in series [4], the half-inhibitory concentration (IC50) is 0.1 µM.

Take `[2H]C([2H])([2H])NC(=O)c1nnc(NC(=O)C2CC2)cc1Nc1cccc(-c2cnn(C([2H])([2H])[2H])n2)c1OC` [Example 52, 6-cyclopropaneamido-4-({2-methoxy-3-[2-(^2H3)methyl-2H-1,2,3-triazol-4-yl]phenyl}amino)-N—(^2H3)methylpyridazine-3-carboxamide]: in the series with Caco-2 cells [3], the “CACO2 (A-B)” value was 482 nm/s.

As to `[2H]C([2H])([2H])NC(=O)c1nnc(NC(=O)C2CC2)cc1Nc1cc(F)cc(-c2cnn(C)n2)c1OC` [Example 4, 6-cyclopropaneamido-4-{[5-fluoro-2-methoxy-3-(2-methyl-2H-1,2,3-triazol-4-yl)phenyl]amino}-N—(^2H3)methylpyridazine-3-carboxamide], in the series “in vitro”, the Papp A→B at 2 h, 3 μM turned out to be 327 nm/s and the efflux ratio at 2 h, 3 μM was 0.6. Besides, the Kp at 1 h in series [2] stood at 0.8. The 50% inhibitory concentration (IC50) in series [4] was found to be 0.29 µM.
